Values after ≈ are worked out from the molar mass of the structure shown.
Assays:
Assay type in all cases: functional
Fusarium solani = experiment: Antimicrobial activity against Fusarium solani ATCC 38136 assessed as growth inhibition by broth dilution method
Aspergillus niger = experiment: Antimicrobial activity against Aspergillus niger ATCC 9142 assessed as growth inhibition by broth dilution method
Staphylococcus hominis = experiment: Antimicrobial activity against Staphylococcus hominis ATCC 27844 assessed as growth inhibition by broth dilution method
Pseudomonas aeruginosa = experiment: Antimicrobial activity against Pseudomonas aeruginosa ATCC 10145 assessed as growth inhibition by broth dilution method
Staphylococcus aureus = experiment: Antimicrobial activity against Staphylococcus aureus ATCC 25923 assessed as growth inhibition by broth dilution method
[1] = system: Staphylococcus epidermidis; experiment: Antimicrobial activity against Staphylococcus epidermidis ATCC 12228 assessed as growth inhibition by broth dilution method
Proteus vulgaris = experiment: Antimicrobial activity against Proteus vulgaris ATCC 13315 assessed as growth inhibition by broth dilution method
Microsporum canis = experiment: Antimicrobial activity against Arthroderma otae ATCC 11622 assessed as growth inhibition by broth dilution method
Alternaria alternata = experiment: Antimicrobial activity against Alternaria alternata ATCC 66868 assessed as growth inhibition by broth dilution method
Rhizoctonia solani = experiment: Antimicrobial activity against Rhizoctonia solani ATCC 76131 assessed as growth inhibition by broth dilution method
Salmonella typhi = experiment: Antimicrobial activity against Salmonella enterica subsp. enterica serovar Typhi ATCC 19430 assessed as growth inhibition by broth dilution method
Trichoderma viride = experiment: Antimicrobial activity against Hypocrea rufa ATCC 52440 assessed as growth inhibition by broth dilution method
Candida albicans = experiment: Antimicrobial activity against Candida albicans ATCC 10231 assessed as growth inhibition by broth dilution method
Bacillus pumilus = experiment: Antimicrobial activity against Bacillus pumilus ATCC 14884 assessed as growth inhibition by broth dilution method
Bacillus cereus = experiment: Antimicrobial activity against Bacillus cereus ATCC 11778 assessed as growth inhibition by broth dilution method
Escherichia coli = experiment: Antimicrobial activity against Escherichia coli ATCC 25922 assessed as growth inhibition by broth dilution method
Aspergillus flavus = experiment: Antimicrobial activity against Aspergillus flavus ATCC 15517 assessed as growth inhibition by broth dilution method
Aspergillus fumigatus = experiment: Antimicrobial activity against Aspergillus fumigatus assessed as growth inhibition by broth dilution method
Klebsiella pneumoniae = experiment: Antimicrobial activity against Klebsiella pneumoniae ATCC 13883 assessed as growth inhibition by broth dilution method
Micrococcus luteus = experiment: Antimicrobial activity against Micrococcus luteus ATCC 4698 assessed as growth inhibition by broth dilution method
Bacillus subtilis = experiment: Antimicrobial activity against Bacillus subtilis ATCC 6633 assessed as growth inhibition by broth dilution method
Trichophyton longifusum = experiment: Antimicrobial activity against Trichophyton longifusum ATCC 22397 assessed as growth inhibition by broth dilution method
Proteus mirabilis = experiment: Antimicrobial activity against Proteus mirabilis ATCC 49565 assessed as growth inhibition by broth dilution method
Aspergillus awamori = experiment: Antimicrobial activity against Aspergillus awamori ATCC 22342 assessed as growth inhibition by broth dilution method

SMILES | MIC (Fusarium solani) | MIC (Aspergillus niger) | MIC (Staphylococcus hominis) | MIC (Pseudomonas aeruginosa) | MIC (Staphylococcus aureus) | MIC [1] | MIC (Proteus vulgaris) | MIC (Microsporum canis) | MIC (Alternaria alternata) | MIC (Rhizoctonia solani) | MIC (Salmonella typhi) | MIC (Trichoderma viride) | MIC (Candida albicans) | MIC (Bacillus pumilus) | MIC (Bacillus cereus) | MIC (Escherichia coli) | MIC (Aspergillus flavus) | MIC (Aspergillus fumigatus) | MIC (Klebsiella pneumoniae) | MIC (Micrococcus luteus) | also measured
O=C1CSC(c2ccco2)N1CCN1CCNCC1 (centres undefined) | 300 mg/L (≈ 1070 µM) | 300 mg/L (≈ 1070 µM) | 75 mg/L (≈ 267 µM) | 75 mg/L (≈ 267 µM) | 150 mg/L (≈ 533 µM) | 300 mg/L (≈ 1070 µM) | 150 mg/L (≈ 533 µM) | 300 mg/L (≈ 1070 µM) | 300 mg/L (≈ 1070 µM) | 150 mg/L (≈ 533 µM) | 75 mg/L (≈ 267 µM) | 150 mg/L (≈ 533 µM) | 300 mg/L (≈ 1070 µM) | 150 mg/L (≈ 533 µM) | 150 mg/L (≈ 533 µM) | 75 mg/L (≈ 267 µM) | 150 mg/L (≈ 533 µM) | 150 mg/L (≈ 533 µM) | 150 mg/L (≈ 533 µM) | 75 mg/L (≈ 267 µM) | MIC (Bacillus subtilis): 75 mg/L (≈ 267 µM); MIC (Trichophyton longifusum): 300 mg/L (≈ 1070 µM); MIC (Proteus mirabilis): 150 mg/L (≈ 533 µM); MIC (Aspergillus awamori): 150 mg/L (≈ 533 µM)
O=C1CSC(c2cccc(O)c2)N1CCN1CCNCC1 (centres undefined) | 75 mg/L (≈ 244 µM) | 37.5 mg/L (≈ 122 µM) | 37.5 mg/L (≈ 122 µM) | 37.5 mg/L (≈ 122 µM) | 37.5 mg/L (≈ 122 µM) | 18.8 mg/L (≈ 61 µM) | 37.5 mg/L (≈ 122 µM) | 37.5 mg/L (≈ 122 µM) | 75 mg/L (≈ 244 µM) | 37.5 mg/L (≈ 122 µM) | 18.8 mg/L (≈ 61 µM) | 37.5 mg/L (≈ 122 µM) | 37.5 mg/L (≈ 122 µM) | 37.5 mg/L (≈ 122 µM) | 18.8 mg/L (≈ 61 µM) | 37.5 mg/L (≈ 122 µM) | 37.5 mg/L (≈ 122 µM) | 37.5 mg/L (≈ 122 µM) | 37.5 mg/L (≈ 122 µM) | 18.8 mg/L (≈ 61 µM) | MIC (Bacillus subtilis): 37.5 mg/L (≈ 122 µM); MIC (Trichophyton longifusum): 37.5 mg/L (≈ 122 µM); MIC (Proteus mirabilis): 18.8 mg/L (≈ 61 µM); MIC (Aspergillus awamori): 37.5 mg/L (≈ 122 µM)
O=C1CSC(c2ccccc2O)N1CCN1CCNCC1 (centres undefined) | 300 mg/L (≈ 976 µM) | 300 mg/L (≈ 976 µM) | 75 mg/L (≈ 244 µM) | 75 mg/L (≈ 244 µM) | 150 mg/L (≈ 488 µM) | 75 mg/L (≈ 244 µM) | 150 mg/L (≈ 488 µM) | 300 mg/L (≈ 976 µM) | 150 mg/L (≈ 488 µM) | 150 mg/L (≈ 488 µM) | 75 mg/L (≈ 244 µM) | 300 mg/L (≈ 976 µM) | 150 mg/L (≈ 488 µM) | 150 mg/L (≈ 488 µM) | 75 mg/L (≈ 244 µM) | 75 mg/L (≈ 244 µM) | 150 mg/L (≈ 488 µM) | 150 mg/L (≈ 488 µM) | 75 mg/L (≈ 244 µM) | 150 mg/L (≈ 488 µM) | MIC (Bacillus subtilis): 75 mg/L (≈ 244 µM); MIC (Trichophyton longifusum): 300 mg/L (≈ 976 µM); MIC (Proteus mirabilis): 150 mg/L (≈ 488 µM); MIC (Aspergillus awamori): 300 mg/L (≈ 976 µM)
O=C(CCl)N1CCN(CCN2C(=O)C(Cl)C2c2ccc(O)cc2)CC1 (centres undefined) | 18.8 mg/L (≈ 48.5 µM) | 9.37 mg/L (≈ 24.3 µM) | 9.37 mg/L (≈ 24.3 µM) | 9.37 mg/L (≈ 24.3 µM) | 9.37 mg/L (≈ 24.3 µM) | 9.37 mg/L (≈ 24.3 µM) | 4.68 mg/L (≈ 12.1 µM) | 9.37 mg/L (≈ 24.3 µM) | 18.8 mg/L (≈ 48.5 µM) | 9.37 mg/L (≈ 24.3 µM) | 9.37 mg/L (≈ 24.3 µM) | 9.37 mg/L (≈ 24.3 µM) | 18.8 mg/L (≈ 48.5 µM) | 9.37 mg/L (≈ 24.3 µM) | 9.37 mg/L (≈ 24.3 µM) | 4.68 mg/L (≈ 12.1 µM) | 9.37 mg/L (≈ 24.3 µM) | 9.37 mg/L (≈ 24.3 µM) | 9.37 mg/L (≈ 24.3 µM) | 9.37 mg/L (≈ 24.3 µM) | MIC (Bacillus subtilis): 9.37 mg/L (≈ 24.3 µM); MIC (Trichophyton longifusum): 18.8 mg/L (≈ 48.5 µM); MIC (Proteus mirabilis): 9.37 mg/L (≈ 24.3 µM); MIC (Aspergillus awamori): 9.37 mg/L (≈ 24.3 µM)
O=C(CCl)N1CCN(CCN2C(=O)C(Cl)C2c2ccccc2O)CC1 (centres undefined) | 300 mg/L (≈ 777 µM) | 300 mg/L (≈ 777 µM) | 150 mg/L (≈ 388 µM) | 75 mg/L (≈ 194 µM) | 75 mg/L (≈ 194 µM) | 150 mg/L (≈ 388 µM) | 75 mg/L (≈ 194 µM) | 300 mg/L (≈ 777 µM) | 300 mg/L (≈ 777 µM) | 300 mg/L (≈ 777 µM) | 75 mg/L (≈ 194 µM) | 300 mg/L (≈ 777 µM) | 300 mg/L (≈ 777 µM) | 75 mg/L (≈ 194 µM) | 150 mg/L (≈ 388 µM) | 150 mg/L (≈ 388 µM) | 300 mg/L (≈ 777 µM) | 300 mg/L (≈ 777 µM) | 150 mg/L (≈ 388 µM) | 75 mg/L (≈ 194 µM) | MIC (Bacillus subtilis): 150 mg/L (≈ 388 µM); MIC (Trichophyton longifusum): 300 mg/L (≈ 777 µM); MIC (Proteus mirabilis): 75 mg/L (≈ 194 µM); MIC (Aspergillus awamori): 300 mg/L (≈ 777 µM)
COc1ccc(C2C(Cl)C(=O)N2CCN2CCN(C(=O)CCl)CC2)cc1 (centres undefined) | 18.8 mg/L (≈ 46.8 µM) | 18.8 mg/L (≈ 46.8 µM) | 4.68 mg/L (≈ 11.7 µM) | 9.37 mg/L (≈ 23.4 µM) | 9.37 mg/L (≈ 23.4 µM) | 4.68 mg/L (≈ 11.7 µM) | 9.37 mg/L (≈ 23.4 µM) | 18.8 mg/L (≈ 46.8 µM) | 9.37 mg/L (≈ 23.4 µM) | 9.37 mg/L (≈ 23.4 µM) | 9.37 mg/L (≈ 23.4 µM) | 18.8 mg/L (≈ 46.8 µM) | 18.8 mg/L (≈ 46.8 µM) | 9.37 mg/L (≈ 23.4 µM) | 9.37 mg/L (≈ 23.4 µM) | 4.68 mg/L (≈ 11.7 µM) | 9.37 mg/L (≈ 23.4 µM) | 9.37 mg/L (≈ 23.4 µM) | 9.37 mg/L (≈ 23.4 µM) | 9.37 mg/L (≈ 23.4 µM) | MIC (Bacillus subtilis): 9.37 mg/L (≈ 23.4 µM); MIC (Trichophyton longifusum): 9.37 mg/L (≈ 23.4 µM); MIC (Proteus mirabilis): 9.37 mg/L (≈ 23.4 µM); MIC (Aspergillus awamori): 9.37 mg/L (≈ 23.4 µM)

— ChEMBL document CHEMBL3045546, “Synthesis and antimicrobial screening of 4-thiazolidinone and 2-azetidinone derivatives of piperazine” (2013)
